Test results as given in patent US11352400B2, “PI3K gamma inhibitor peptide for treatment of respiratory system diseases” (Kither Biotech S.r.I., priority 2014, dated 2022).

Tests used:
PDE4B = experiment: Phosphodiesterase activity in anti-PDE4B immunoprecipitates from treated tracheal smooth muscle cells; type: cell-based, mouse; conditions: tracheal smooth muscle cells of wild-type mice (PI3Kγ+/+); 50 μM, 30 minutes
Method: For protein extraction from murine tracheal smooth muscle cells (mTSMCs) and human bronchial smooth muscle cells (hBSMCs), cells were treated with the indicated drugs/peptides and immediately lysed in cold lysis buffer containing 120 mmol/L NaCl, 50 mmol/L Tris-HCl (pH 8.0), complete protease inhibitors (Roche Applied Science, Indianapolis, Ind.) and phosphatase inhibitors (50 mmol/L sodium fluoride, 1 mmol/L sodium orthovanadate and 10 mmol/L sodium pyrophosphate). After 30 min of incubation on ice, lysates were centrifuged at 13000 rpm for 10 min at 4° C. and used for either Western blotting or subjected to immunoprecipitation and measurements of phosphodiesterase activity. […]
Phosphodiesterase activity in immunoprecipitates was measured according to the two-step method of Thompson and Appleman, as previously described (2), with minor modifications. […] The amount of radiolabeled adenosine in the supernatant was quantified by scintillation counting (Ultima Gold liquid scintillation from Perkin Elmer, Waltham, Mass.).
Murine tracheal smooth muscle cells were cultured from explants of trachea using previously described methods with modifications. […] More than 90% of these cells were smooth muscle cells, as determined by immunofluorescence performed with an antibody specific for smooth muscle actin. […]

hBSMCs = experiment: Measurements of calcium transients (Indo-1) in hBSMCs; type: cell-based, human; conditions: 50 μM, 30 minutes
Method: Cells were washed with a Tyrode solution containing (in mmol/L): 5 HEPES, 154 NaCl, 4 KCl, 2 CaCl2, 1 MgCl2, 5.5 D-glucose, at pH 7.35 and placed on an inverted microscope. Cells were kept in Tyrode solution and treated with a KCl depolarizing solution containing (in mmol/L): 5 HEPES, 118 NaCl, 40 KCl, 2 CaCl2, 1 MgCl2, 5.5 D-glucose, at pH 7.35. Calcium transients were analyzed as the ratio of fluorescence signals measured at 400 nm and 490 nm following excitation of Indo-1-AM-loaded cells at 350 nm. Experiments were recorded and analyzed with Igor® Software, using the functions added by Jason Rothman (Neuromatic, www.thinkrandom.com).

[1] = system: airway hyperreactivity induced by the muscarinic agonist methacholine in healthy mice; experiment: Airway hyperreactivity to methacholine in healthy mice; type: in vivo, BALB/C mice; conditions: peptide 1.5 μg or equimolar P1, increasing doses of methacholine
[2] = system: ovalbumin (OVA)-induced asthma mice; experiment: Airway hyperresponsiveness (tidal volume) in ovalbumin-induced asthma model; type: in vivo, BALB/C mice; conditions: OVA-sensitized mice; 150 μg intra-tracheal, 30 minutes before methacholine; vs PBS or P1
Method: Ovalbumin (100 μg) (OVA, Sigma-Aldrich, St. Louis, Mo.), complexed with aluminum potassium sulfate (1 mg, alum) was administered intraperitoneally (i.p.) on days 1 and 14, and intra-nasally (i.n.) (50 μg OVA in 50 μl PBS) on days 14, 25, 26, and 27. Control mice received i.p. injections of alum and i.n. injections of PBS only. Airway hyperreactivity induced by inhaled methacholine was measured at 24 hours after the final dose of OVA (Day 28).
Method 2: Mice sensitized to ovalbumin were treated, by intra-tracheal instillation, with 70 μL of phosphate-buffered saline solution (PBS) containing vehicle or 150 μg of the Trojan peptide derived from PI3Kγ or equimolar amounts of P1 control peptide. Airway hyperresponsiveness was assessed at 30 minutes after the treatment according to a previously published protocol (6). […] The airway opening pressure (Pao), proximal to the endotracheal tube, and the pressure inside the chamber were measured with pressure transducers (Special Instruments, Digima Clic; Nordlingen, Germany). Gas flow was measured with a pneumotachograph (Special Instruments, Digima Clic; Nordlingen, Germany). Tidal volume was calculated as the integral of the flow signal. Variables of mechanical ventilation were recorded using the ICU-Lab software (KleisTEK Advanced Electronic Systems, Bari, Italy). […]

RQIKIWFQNRRMKWKKGKATHRSPGQIHLVQRHPPSEESQAF (fusion peptide comprising SEQ ID No.1 and SEQ ID No.3) [Trojan peptide derived from PI3Kγ]
catalytic activity of PDE4B (PDE4B): significantly reduced | influx of Ca2+ induced by KCl (through VOCCs) (hBSMCs; 40 mM KCl depolarizing solution): completely abolished | maximum peak of Ca2+ transients induced by carbachol (hBSMCs; carbachol 10 μM, vs vehicle or P1): significantly lower | airway hyperreactivity induced by methacholine (average lung resistance) [1]: significantly attenuated | reduction of the tidal volume induced by methacholine [2]: significantly attenuated
